Active and inactive are the calls of the source.
Experiments:
[1] = molecular target: T1, Sentrin-specific protease 7 (Homo sapiens, UniProt Q9BQF6); format: functional;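 note: Luminescence-based dose-response confirmation of ultra-high-throughput screening hits, measuring inhibition of SENP7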
T1 sequence (Q9BQF6 whole entry): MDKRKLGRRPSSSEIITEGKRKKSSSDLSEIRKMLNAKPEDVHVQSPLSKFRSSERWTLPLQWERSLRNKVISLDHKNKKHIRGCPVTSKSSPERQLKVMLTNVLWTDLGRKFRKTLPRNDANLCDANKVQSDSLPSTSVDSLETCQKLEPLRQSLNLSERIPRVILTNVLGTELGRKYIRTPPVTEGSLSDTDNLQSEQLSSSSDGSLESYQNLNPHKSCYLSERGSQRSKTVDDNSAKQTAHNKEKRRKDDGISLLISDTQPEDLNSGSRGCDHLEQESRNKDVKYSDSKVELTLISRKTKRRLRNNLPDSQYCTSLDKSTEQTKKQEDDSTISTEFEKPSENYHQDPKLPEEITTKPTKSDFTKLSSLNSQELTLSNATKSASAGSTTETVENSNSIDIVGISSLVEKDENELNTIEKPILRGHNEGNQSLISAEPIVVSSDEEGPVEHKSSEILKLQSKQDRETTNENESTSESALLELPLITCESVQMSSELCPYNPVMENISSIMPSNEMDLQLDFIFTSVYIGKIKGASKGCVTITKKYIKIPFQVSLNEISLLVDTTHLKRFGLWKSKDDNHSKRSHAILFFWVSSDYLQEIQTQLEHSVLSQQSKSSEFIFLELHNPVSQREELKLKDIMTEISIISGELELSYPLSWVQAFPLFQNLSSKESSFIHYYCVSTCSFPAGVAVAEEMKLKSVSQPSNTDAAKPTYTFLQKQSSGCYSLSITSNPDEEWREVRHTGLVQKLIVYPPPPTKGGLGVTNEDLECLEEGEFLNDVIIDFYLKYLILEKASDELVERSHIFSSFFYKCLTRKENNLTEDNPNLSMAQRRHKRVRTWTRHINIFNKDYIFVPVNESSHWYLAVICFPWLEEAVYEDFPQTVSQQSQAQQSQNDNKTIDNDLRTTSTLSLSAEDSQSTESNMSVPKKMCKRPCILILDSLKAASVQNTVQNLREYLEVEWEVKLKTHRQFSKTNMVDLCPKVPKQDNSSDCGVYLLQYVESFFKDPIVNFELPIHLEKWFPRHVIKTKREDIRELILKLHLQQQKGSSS

[2] = molecular target: T2, Replicative DNA helicase DnaB (Mycobacterium tuberculosis, UniProt P9WMR3); test: DnaB intein splicing inhibitors, dose response, biochemical, cell-free fluorescence (AID 449749); format: functional
T2 sequence (P9WMR3 whole entry): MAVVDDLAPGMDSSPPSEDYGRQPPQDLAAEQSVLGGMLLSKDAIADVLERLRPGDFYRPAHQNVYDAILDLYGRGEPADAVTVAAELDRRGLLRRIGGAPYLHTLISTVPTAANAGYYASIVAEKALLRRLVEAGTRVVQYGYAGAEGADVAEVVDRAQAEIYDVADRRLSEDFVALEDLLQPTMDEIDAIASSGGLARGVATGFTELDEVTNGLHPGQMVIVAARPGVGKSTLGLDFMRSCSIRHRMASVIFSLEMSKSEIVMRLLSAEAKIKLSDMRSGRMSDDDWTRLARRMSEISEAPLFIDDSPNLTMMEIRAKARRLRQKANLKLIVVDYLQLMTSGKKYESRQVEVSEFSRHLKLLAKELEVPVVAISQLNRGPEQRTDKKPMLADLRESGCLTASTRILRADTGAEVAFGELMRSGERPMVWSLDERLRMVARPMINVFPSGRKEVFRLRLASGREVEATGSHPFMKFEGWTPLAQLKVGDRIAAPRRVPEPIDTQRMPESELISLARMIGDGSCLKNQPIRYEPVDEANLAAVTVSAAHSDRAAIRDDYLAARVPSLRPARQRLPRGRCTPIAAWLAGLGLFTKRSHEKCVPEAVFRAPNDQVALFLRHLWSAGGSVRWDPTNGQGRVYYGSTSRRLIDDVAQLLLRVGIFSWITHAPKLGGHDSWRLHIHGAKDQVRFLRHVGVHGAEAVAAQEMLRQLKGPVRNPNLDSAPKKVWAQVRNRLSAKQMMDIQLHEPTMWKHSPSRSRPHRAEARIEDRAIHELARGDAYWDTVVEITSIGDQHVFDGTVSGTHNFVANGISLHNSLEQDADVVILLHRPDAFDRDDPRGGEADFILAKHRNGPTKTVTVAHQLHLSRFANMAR

Row | Structure (SMILES) | IC50 [1] | AC50 [2]
1 | COc1cc(C(=O)c2nccc3cc(OC)c(OC)cc23)c([N+](=O)[O-])cc1OC | 2930 nM (active) | 273 nM (active)
2 | N#Cc1c(O)nc(SCC(=O)N2c3ccccc3Sc3ccccc32)nc1-c1ccccc1 |  | 2410 nM (active)
3 | c1ccc2c(Nc3nnc(-c4ccncc4)s3)cccc2c1 | 5510 nM (active) | 

— ChEMBL document CHEMBL1201862, “PubChem BioAssay data set” (2004)
